From patent US20240174662A1, “SMALL MOLECULE INHIBITORS OF SALT INDUCIBLE KINASES” (Janssen Biotech, Inc., priority 2021, published 2024)

Target: SIK2 (Homo sapiens (Human), UniProt Q9H0K1)
Assay: SIK2 Enzymatic Assay Version 2 (High ATP)
Type: biochemical
Settings: 3 mM ATP and 200 μM HDAC5tide final, ADP-Glo Max luminescence
Method in brief: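 Run at room temperature; SIK2 enzyme at 6 nM (2× final) preincubated with compound 30 min before reaction. ADP formation detected by ADP-Glo Max (2 h reagent, 1 h detection) with luminescence read-out.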

Chain of SIK2 (Q9H0K1 whole entry, species assumed): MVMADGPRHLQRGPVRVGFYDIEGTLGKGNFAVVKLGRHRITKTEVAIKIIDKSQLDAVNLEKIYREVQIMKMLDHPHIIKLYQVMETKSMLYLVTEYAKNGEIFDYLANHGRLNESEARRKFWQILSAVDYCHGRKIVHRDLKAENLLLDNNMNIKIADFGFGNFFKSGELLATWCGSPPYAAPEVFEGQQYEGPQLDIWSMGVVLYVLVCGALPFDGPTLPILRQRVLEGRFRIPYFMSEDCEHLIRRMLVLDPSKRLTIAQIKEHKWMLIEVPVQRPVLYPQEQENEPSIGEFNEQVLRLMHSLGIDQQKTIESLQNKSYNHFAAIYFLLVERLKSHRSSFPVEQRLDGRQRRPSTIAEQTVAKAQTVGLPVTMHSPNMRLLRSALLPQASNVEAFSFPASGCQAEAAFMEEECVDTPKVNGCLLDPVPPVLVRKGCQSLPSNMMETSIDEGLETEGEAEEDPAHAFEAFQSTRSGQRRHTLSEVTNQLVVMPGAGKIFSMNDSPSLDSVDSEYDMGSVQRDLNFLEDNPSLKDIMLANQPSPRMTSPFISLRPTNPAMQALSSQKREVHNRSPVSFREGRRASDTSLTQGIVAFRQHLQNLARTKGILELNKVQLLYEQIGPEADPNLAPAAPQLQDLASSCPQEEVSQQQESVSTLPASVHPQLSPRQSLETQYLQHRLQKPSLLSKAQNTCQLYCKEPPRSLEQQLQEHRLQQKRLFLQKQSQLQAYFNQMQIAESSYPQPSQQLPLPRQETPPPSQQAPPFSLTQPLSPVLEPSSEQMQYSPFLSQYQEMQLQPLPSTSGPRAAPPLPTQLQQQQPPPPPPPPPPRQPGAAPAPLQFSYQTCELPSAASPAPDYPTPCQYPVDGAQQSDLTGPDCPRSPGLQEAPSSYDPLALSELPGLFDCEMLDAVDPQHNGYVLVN

Structure (SMILES): Cc1cc(Nc2cc3cc(-c4c(CO[C@H]5CN(C)C[C@H]5C)cnn4C)ccn3n2)nc(C)n1 [Example 367, (rac-cis)-N-(2,6-dimethylpyrimidin-4-yl)-5-[4-[(1,4-dimethylpyrrolidin-3-yl)oxymethyl]-2-methyl-pyrazol-3-yl]pyrazolo[1,5-a]pyridin-2-amine]
- IC50: 2.9 nM

Structure (SMILES): Cc1cc(Nc2cc3cc(-c4c(OC[C@H]5CCN5C)cnn4C)ccn3n2)nc(C(C)(C)C)n1 [Example 151, N-(2-tert-butyl-6-methyl-pyrimidin-4-yl)-5-[2-methyl-4-[[(2R)-1-methylazetidin-2-yl]methoxy]pyrazol-3-yl]pyrazolo[1,5-a]pyridin-2-amine]
- IC50: < 0.847 nM

Structure (SMILES): CCN1CC[C@H]1COc1cnn(C)c1-c1ccn2nc(Nc3cnc(C)c(C)n3)cc2c1 [Example 359, N-(5,6-dimethylpyrazin-2-yl)-5-[4-[[(2S)-1-ethylazetidin-2-yl]methoxy]-2-methyl-pyrazol-3-yl]pyrazolo[1,5-a]pyridin-2-amine]
- IC50: 52.4 nM

Structure (SMILES): Cc1onc(OC[C@](C)(c2ccccc2)N(C)C)c1-c1ccn2nc(NC(=O)C3CC3)cc2c1 [Example 226, N-[5-[3-[(2S)-2-(dimethylamino)-2-phenyl-propoxy]-5-methyl-isoxazol-4-yl]pyrazolo[1,5-a]pyridin-2-yl]cyclopropanecarboxamide]
- IC50: 12.8 nM

Structure (SMILES): Cc1cc(Nc2cc3cc(-c4c(OC[C@@H]5CCN5C)cnn4C)ccn3n2)nc(C2CC2)n1 [Example 134, N-(2-cyclopropyl-6-methyl-pyrimidin-4-yl)-5-[2-methyl-4-[[(2S)-1-methylazetidin-2-yl]methoxy]pyrazol-3-yl]pyrazolo[1,5-a]pyridin-2-amine]
- IC50: 2.8 nM

Structure (SMILES): Cc1cncc(Nc2cc3cc(-c4c(CO[C@H]5CN(C)C[C@H]5C)cnn4C)ccn3n2)n1 (stereo in doubt) [Example 378, CIS—*R, *R-5-[4-[(1,4-dimethylpyrrolidin-3-yl)oxymethyl]-2-methyl-pyrazol-3-yl]-N-(6-methylpyrazin-2-yl)pyrazolo[1,5-a]pyridin-2-amine]
- IC50: 12.2 nM

Structure (SMILES): CN1CC[C@@H]1COc1cnn(C)c1-c1ccn2nc(Nc3ccnc(C(F)(F)F)n3)cc2c1 [Example 118, 5-[2-methyl-4-[[(2R)-1-methylazetidin-2-yl]methoxy]pyrazol-3-yl]-N-[2-(trifluoromethyl)pyrimidin-4-yl]pyrazolo[1,5-a]pyridin-2-amine]
- IC50: 1.9 nM

Structure (SMILES): Cn1ncc(OC[C@H]2C[C@@H](N)C2)c1-c1ccn2nc(NC(=O)C3CC3)cc2c1 [Example 400, N-[5-[4-[(3-aminocyclobutyl)methoxy]-2-methyl-pyrazol-3-yl]pyrazolo[1,5-a]pyridin-2-yl]cyclopropanecarboxamide]
- IC50: 108 nM

Structure (SMILES): CN1CC[C@@H]1COc1cnn(C)c1-c1ccn2nc(Nc3cnn(C)c3)cc2c1 [Example 142, 5-[2-methyl-4-[[(2R)-1-methylazetidin-2-yl]methoxy]pyrazol-3-yl]-N-(1-methylpyrazol-4-yl)pyrazolo[1,5-a]pyridin-2-amine]
- IC50: 2.8 nM

Structure (SMILES): C[C@@H]1CC[C@H](COc2cnn(C)c2-c2ccn3nc(NC(=O)C4CC4)cc3c2)N1C [Example 256, N-[5-[4-[[(2R,5R)-1,5-dimethylpyrrolidin-2-yl]methoxy]-2-methyl-pyrazol-3-yl]pyrazolo[1,5-a]pyridin-2-yl]cyclopropanecarboxamide]
- IC50: 42 nM

Structure (SMILES): CN1CC[C@@H]1COc1cnn(C)c1-c1ccn2nc(Nc3ccc(C4CC4)nn3)cc2c1 [Example 50, N-(6-cyclopropylpyridazin-3-yl)-5-[2-methyl-4-[[(2R)-1-methylazetidin-2-yl]methoxy]pyrazol-3-yl]pyrazolo[1,5-a]pyridin-2-amine]
- IC50: 2.6 nM

Structure (SMILES): CN1CC[C@H](Oc2cnn(C)c2-c2ccn3nc(Nc4cc5c(nn4)CCC5)cc3c2)C1 [Example 269, N-(6,7-dihydro-5H-cyclopenta[c]pyridazin-3-yl)-5-[2-methyl-4-[(3S)-1-methylpyrrolidin-3-yl]oxy-pyrazol-3-yl]pyrazolo[1,5-a]pyridin-2-amine]
- IC50: 33.2 nM

Structure (SMILES): CN1CC(C)(C)[C@H]1COc1cnn(C)c1-c1ccn2nc(NC(=O)C3CC3)cc2c1 [Example 3, N-[5-[2-methyl-4-[[(2S)-1,3,3-trimethylazetidin-2-yl]methoxy]pyrazol-3-yl]pyrazolo[1,5-a]pyridin-2-yl]cyclopropanecarboxamide]
- IC50: 8.5 nM

Structure (SMILES): Cn1ncc(COC2CCNCC2)c1-c1ccn2nc(NC(=O)C3CC3)cc2c1 [Example 463, N-[5-[2-methyl-4-(4-piperidyloxymethyl)pyrazol-3-yl]pyrazolo[1,5-a]pyridin-2-yl]cyclopropanecarboxamide]
- IC50: 74.5 nM

Structure (SMILES): Cn1ncc(CO[C@H]2C[C@H]3COC[C@@H](C2)N3)c1-c1ccn2nc(NC(=O)C3CC3)cc2c1 [Example 183, N-[5-[2-methyl-4-[[(1S,5R)-3-oxa-9-azabicyclo[3.3.1]nonan-7-yl]oxymethyl]pyrazol-3-yl]pyrazolo[1,5-a]pyridin-2-yl]cyclopropanecarboxamide]
- IC50: 11.7 nM

Structure (SMILES): Cc1snc(OC[C@H]2CN(C)CCO2)c1-c1ccn2nc(NC(=O)C3CC3)cc2c1 [Example 332, N-[5-[5-methyl-3-[[(2R)-4-methylmorpholin-2-yl]methoxy]isothiazol-4-yl]pyrazolo[1,5-a]pyridin-2-yl]cyclopropanecarboxamide]
- IC50: 58.3 nM

Structure (SMILES): Cc1cc(Nc2cc3cc(-c4c(OC[C@H]5CCN5CCF)cnn4C)ccn3n2)nnc1C [Example 276, N-(5,6-dimethylpyridazin-3-yl)-5-[4-[[(2R)-1-(2-fluoroethyl)azetidin-2-yl]methoxy]-2-methyl-pyrazol-3-yl]pyrazolo[1,5-a]pyridin-2-amine]
- IC50: 0.9 nM

Structure (SMILES): Cc1cncc(Nc2cc3cc(-c4c(OC[C@H]5CCN5C)cnn4C)ccn3n2)n1 [Example 46, 5-[2-methyl-4-[[(2R)-1-methylazetidin-2-yl]methoxy]pyrazol-3-yl]-N-(6-methylpyrazin-2-yl)pyrazolo[1,5-a]pyridin-2-amine]
- IC50: 2.5 nM

Structure (SMILES): CN1C[C@H]2C[C@H]2[C@@H]1COc1cnn(C)c1-c1ccn2nc(NC(=O)C3CC3)cc2c1 [Example 432, N-[5-[2-methyl-4-[[(1S,4R,5R)-3-methyl-3-azabicyclo[3.1.0]hexan-4-yl]methoxy]pyrazol-3-yl]pyrazolo[1,5-a]pyridin-2-yl]cyclopropanecarboxamide]
- IC50: 76.8 nM

Structure (SMILES): CN1CC[C@@H]1COc1cnn(C)c1-c1ccn2nc(NC(=O)C3CC3(F)F)cc2c1 (stereo partly drawn) [Example 72, 2,2-difluoro-N-[5-[2-methyl-4-[[(2R)-1-methylazetidin-2-yl]methoxy]pyrazol-3-yl]pyrazolo[1,5-a]pyridin-2-yl]cyclopropanecarboxamide]
- IC50: 52.1 nM

Structure (SMILES): Cc1onc(O[C@@H]2CN[C@H](C(F)F)C2)c1-c1ccn2nc(NC(=O)C3CC3)cc2c1 [Example 389, N-[5-[3-[(3S,5S)-5-(difluoromethyl)pyrrolidin-3-yl]oxy-5-methyl-isoxazol-4-yl]pyrazolo[1,5-a]pyridin-2-yl]cyclopropanecarboxamide]
- IC50: 125 nM

Structure (SMILES): CNC(=O)c1ccc(Nc2cc3cc(-c4c(OC[C@H]5CCN5C)cnn4C)ccn3n2)nc1 [Example 126, N-methyl-6-[[5-[2-methyl-4-[[(2R)-1-methylazetidin-2-yl]methoxy]pyrazol-3-yl]pyrazolo[1,5-a]pyridin-2-yl]amino]pyridine-3-carboxamide]
- IC50: 4.1 nM
